From publication PMC10747733, “N-Substituted 2-(Benzenosulfonyl)-1-Carbotioamide Derivatives Exert Antimicrobial and Cytotoxic Effects via Aldehyde Dehydrogenase Pathway: Synthesis, In Silico and In Vitro Studies” (Pharmaceuticals, 2023)
Converted amounts (≈) assume the structure as drawn.

Tests used:
[1] = test system: Staphylococcus aureus ATCC 43300; experiment: Broth microdilution antimicrobial activity; format: cell-based; settings: for MBC / MIC: ATCC43300; for MBC / MIC / MBC/MIC: Staphylococcus aureus ATCC 43300
Excerpt: (§1) Reference strains of microorganisms that came from American Type Culture Collection (ATCC) (Manassas, VA, USA) were used for this study. The representative Gram-positive bacteria were as follows: Staphylococcus aureus ATCC 25923, Staphylococcus aureus ATCC 29213, Staphylococcus aureus ATCC 43300, Staphylococcus epidermidis ATCC 12228, Enterococcus faecalis ATCC 29212, Micrococcus luteus ATCC 10240, Bacillus subtilis ATCC 6633 and Bacillus cereus ATCC 10876. While, those of Gram-negative bacteria were as follows: Bordetella bronchiseptica ATCC 4617, Escherichia coli ATCC 25922, Klebsiella pneumoniae ATCC 13883, Proteus mirabilis ATCC 12453, Salmonella Typhimurium ATCC 14028 and Pseudomonas aeruginosa ATCC 9027. Moreover, the following fungi belonging to yeasts were used: Candida albicans ATCC 10231, Candida albicans ATCC 2091, Candida parapsilosis ATCC 22019, Candida glabrata ATCC 90030 and Candida krusei ATCC 14243.
(§2) The new compounds WZ1–WZ4 were assayed for both antibacterial and antifungal activity using the broth microdilution method in accordance with the European Committee on Antimicrobial Susceptibility Testing (EUCAST) and Clinical and Laboratory Standards Institute (CLSI) guidelines. The microorganisms were grown at 35 °C for 18–24 h on appropriate media (nutrient agar and Sabouraud for bacteria and fungi, respectively) (BioMaxima S.A., Lublin, Poland). Next, microbial suspensions with an optical density of 0.5 McFarland standard scale (in sterile 0.85% NaCl) were prepared. In turn, the tested compounds were initially diluted at 50 mg/mL in dimethyl sulfoxide (DMSO) and the broth microdilution method was used to assess their minimum inhibitory concentrations (MICs). For these studies, selective broth Mueller-Hinton (MH) (BioMaxima S.A., Lublin, Poland) and RPMI (Roswell Park Memorial Institute) 1640 with MOPS (3-(N-Morpholino)propanesulfonic acid) (Sigma-Aldrich Chemicals, St. Louis, MO, USA) were used for bacteria and fungi, respectively. The antimicrobial effect of compounds WZ1–WZ4 was determined in the concentration range from 2000 to 0.98 µg/mL.
(§3) Then, the microbial suspensions were introduced into each well of the microplate and incubated for 18–24 h at 35 °C. […] The reference drugs ciprofloxacin or vancomycin (against bacteria) and nystatin (against fungi) (Sigma-Aldrich Chemicals, St. Louis, MO, USA) were also used. Next, the values of the minimum bactericidal concentration (MBC) and minimum fungicidal concentration (MFC) of WZ1–WZ4 were assessed. For this purpose, the cultures from each MIC determination well were transferred to a suitable solid medium and incubated under appropriate conditions. The lowest concentrations of compounds without microbial growth were read as MBC or MFC. The studies were performed in triplicate and representative data were gathered.
(§4) In turn, the MBC/MIC or MFC/MIC ratios were used to assess bactericidal/fungicidal (MBC/MIC or MFC/MIC ≤ 4) and bacteriostatic/fungistatic (MBC/MIC or MFC/MIC > 4) effect of these compounds [93].

[2] = test system: Candida krusei ATCC 14243; experiment: Broth microdilution antimicrobial activity; format: cell-based; settings: for MFC / MIC: Pichia kudriavzevii; for MFC: ATCC14243, read-out: MFC; for MIC: ATCC14243, read-out: MIC
Excerpt: as §1, §2, §3, §4

[3] = test system: Bacillus subtilis ATCC 6633; experiment: Broth microdilution antimicrobial activity; format: cell-based; settings: for MBC / MIC: ATCC6633
Excerpt: as §1, §2, §3, §4

[4] = test system: Candida parapsilosis ATCC 22019; experiment: Broth microdilution antimicrobial activity; format: cell-based; settings: for MFC / MIC: Lodderomyces parapsilosis; for MFC: ATCC22019, read-out: MFC; for MIC: ATCC22019, read-out: MIC
Excerpt: as §1, §2, §3, §4

[5] = test system: Enterococcus faecalis ATCC 29212; experiment: Broth microdilution antimicrobial activity; format: cell-based; settings: for MBC / MIC: ATCC29212; for MBC / MIC / MBC/MIC: Enterococcus faecalis ATCC 29212; for MBC: read-out: MBC; for MIC: read-out: MIC
Excerpt: as §1, §2, §3, §4

[6] = test system: Staphylococcus aureus ATCC 29213; experiment: Broth microdilution antimicrobial activity; format: cell-based; settings: for MBC / MIC: ATCC29213; for MBC / MIC / MBC/MIC: Staphylococcus aureus ATCC 29213
Excerpt: as §1, §2, §3, §4

[7] = test system: Salmonella Typhimurium ATCC 14028; experiment: Broth microdilution antimicrobial activity; format: cell-based; settings: for MBC / MIC: Salmonella enterica
Excerpt: as §1, §2, §3, §4

[8] = test system: ALDH1A1; experiment: ALDH1A1 concentration by ELISA in 769-P cells; format: cell-based, human
Protocol: The effect of compounds WZ1–WZ4 on ALDHA1 levels was investigated (Figure 10). The Du145, HepG2 and 769-P cell lines were treated with the calculated IC25 values for each compound.
Selected cell lines, viz HepG2, Du145 and 769-P, were seeded into 6-well plates and incubated for 24 h after seeding with compounds at a concentration equal to IC25. After a further 24 h or 48 h, cells were detached with trypsin and centrifuged. The resulting cell pellet was resuspended in 0.5 mL PBS. The samples were then sonicated, and protein was determined using the Bradford method (Bio-rad; Hercules, CA, USA). Samples were equilibrated to 10 mg/mL of protein, and ALDH1A1 was determined in the samples prepared in this way. ALDH1A1 determination was performed using an ELISA (SEE824Hu; Cloud Clone Corp., Katy, TX, USA), according to the manufacturer’s protocol.

| Structure (SMILES) | MBC [1] | MIC [1] | MBC/MIC [1] | MFC/MIC [2] | MFC [2] | MIC [2] | MBC/MIC [3] | MBC [3] | MIC [3] | MFC/MIC [4] | MFC [4] | MIC [4] | MBC [5] | MIC [5] | MBC/MIC [5] | MBC [6] | MIC [6] | MBC/MIC [6] | MBC/MIC [7] | MBC [7] | further results |
| --- | --- | --- | --- | --- | --- | --- | --- | --- | --- | --- | --- | --- | --- | --- | --- | --- | --- | --- | --- | --- | --- |
| CNC(=S)NNS(=O)(=O)c1ccccc1 [WZ4, 2-(Benzenesulfonyl)-N-Methylhydrazine-1-Carbothioamide] | 2000 µg/mL (≈ 8.15 mM) | 500 µg/mL (≈ 2.04 mM) | 4 | 4 | 2000 µg/mL (≈ 8.15 mM) | 500 µg/mL (≈ 2.04 mM) | 16 | 2000 µg/mL (≈ 8.15 mM) | 125 µg/mL (≈ 0.51 mM) | 8 | 1000 µg/mL (≈ 4.08 mM) | 125 µg/mL (≈ 0.51 mM) | > 2000 µg/mL | 1000 µg/mL (≈ 4.08 mM) | > 2 | > 2000 µg/mL | 1000 µg/mL (≈ 4.08 mM) | > 2 | > 1 | > 2000 µg/mL | MIC [7]: > 2000 µg/mL; ALDH1A1 concentration compared to control ([8]; compound at IC25, 24 h): decrease; ALDH1A1 concentration compared to control ([8]; compound at IC25, 48 h): significant decrease |
| CCCCCCNC(=S)NNS(=O)(=O)c1ccccc1 [WZ3, 2-(Benzenesulfonyl)-N-Hexylhydrazine-1-Carbothioamide] | 500 µg/mL (≈ 1.58 mM) | 250 µg/mL (≈ 0.792 mM) | 2 | 2 | 1000 µg/mL (≈ 3.17 mM) | 500 µg/mL (≈ 1.58 mM) | 4 | 500 µg/mL (≈ 1.58 mM) | 125 µg/mL (≈ 0.396 mM) | 1 | 2000 µg/mL (≈ 6.34 mM) | 2000 µg/mL (≈ 6.34 mM) | > 2000 µg/mL | 500 µg/mL (≈ 1.58 mM) | > 4 | 500 µg/mL (≈ 1.58 mM) | 500 µg/mL (≈ 1.58 mM) | 1 | > 2 | > 2000 µg/mL | MIC [7]: 1000 µg/mL (≈ 3.17 mM); ALDH1A1 concentration compared to control ([8]; compound at IC25, 24 h): increase |
| CCCCNC(=S)NNS(=O)(=O)c1ccccc1 [WZ2, 2-(Benzenesulfonyl)-N-Butylhydrazine-1-Carbothioamide] | > 2000 µg/mL | 2000 µg/mL (≈ 6.96 mM) | > 1 | > 1 | > 2000 µg/mL | 2000 µg/mL (≈ 6.96 mM) | > 2 | > 2000 µg/mL | 1000 µg/mL (≈ 3.48 mM) | > 1 | > 2000 µg/mL | 2000 µg/mL (≈ 6.96 mM) | > 2000 µg/mL | > 2000 µg/mL | > 1 | > 2000 µg/mL | 2000 µg/mL (≈ 6.96 mM) | > 1 | > 1 | > 2000 µg/mL | bioactivity class ([1]; S. aureus ATCC 43300): no bioactivity (no bioactivity (MIC > 1000 µg/mL)); bioactivity class ([5]; E. faecalis): no bioactivity (no bioactivity (MIC > 1000 µg/mL)); bioactivity class ([6]; S. aureus ATCC 29213): no bioactivity (no bioactivity (MIC > 1000 µg/mL)); MIC [7]: > 2000 µg/mL; ALDH1A1 concentration compared to control ([8]; compound at IC25, 24 h): no significant changes; ALDH1A1 concentration compared to control ([8]; compound at IC25, 48 h): significant decrease |
| O=S(=O)(NNC(=S)NC1CCCCC1)c1ccccc1 [WZ1, 2-(Benzenesulfonyl)-N-Cyclohexylhydrazine-1-Carbothioamide] | > 2000 µg/mL | 500 µg/mL (≈ 1.6 mM) | > 4 | > 1 | > 2000 µg/mL | > 2000 µg/mL | > 4 | > 2000 µg/mL | 500 µg/mL (≈ 1.6 mM) | > 1 | > 2000 µg/mL | > 2000 µg/mL | > 2000 µg/mL | 2000 µg/mL (≈ 6.38 mM) | > 1 | > 2000 µg/mL | 500 µg/mL (≈ 1.6 mM) | > 4 | > 1 | > 2000 µg/mL | MIC [7]: > 2000 µg/mL; ALDH1A1 concentration compared to control ([8]; compound at IC25, 24 h): decrease |
